What was measured:
[1] = Free concentration and protein binding in spiked human serum samples (Table S5); conditions: for fraction unbound: human, serum, PB
Method: Subsequently, samples were mixed for 10 s, stored in an ultrasonic bath for 10 min at 40 °C, then centrifuged at 8000× g for 5 min. Next, 100 µL of the resulting supernatant was further diluted with 500 µL water with 0.1% formic acid. […] Details are described in the Supplementary Materials (Figures S1–S3).
Table S5. […] In order to evaluate the
(a) Spiked human serum samples of 14 patients (8 critically ill and 6 non-critically ill) after calibration with sheep serum.
(b) Spiked human serum samples of 9 critically ill patients and 6 healthy volunteers after calibration with human serum.

[2] = Free dalbavancin in patient serum by solid phase extraction with a centrifugal device (Nanosep); format: in vivo, human; conditions: for fcmax(d1) *: day 1 peak; for fcmax(d1) * / fcmin(d8) *: free concentration determined by solid phase extraction (Nanosep); for fcmin(d8) *: day 8 trough; for fAUC(d8) *: from free concentration by solid phase extraction (Nanosep)
Method: The AUC was calculated using the trapezoidal rule.

[3] = S5b, serum of patient 16 (critically ill) spiked 50 mg/L, measured c 56.7 mg/L, calibration with human serum
[4] = S5b, serum of patient 17 (critically ill) spiked 200 mg/L, measured c 222 mg/L, calibration with human serum
[5] = S5b, serum of patient 18 (critically ill) spiked 50 mg/L, measured c 57.6 mg/L, calibration with human serum
[6] = S5b, serum of patient 18 (critically ill) spiked 200 mg/L, measured c 242 mg/L, calibration with human serum
[7] = S5b, serum of patient 19 (critically ill) spiked 50 mg/L, measured c 51.1 mg/L, calibration with human serum
[8] = S5b, serum of patient 19 (critically ill) spiked 200 mg/L, measured c 197 mg/L, calibration with human serum
[9] = S5b, serum of patient 20 (critically ill) spiked 50 mg/L, measured c 54.5 mg/L, calibration with human serum
[10] = S5b, serum of patient 20 (critically ill) spiked 200 mg/L, measured c 254 mg/L, calibration with human serum
[11] = S5b, serum of patient 21 (critically ill) spiked 50 mg/L, measured c 55.2 mg/L, calibration with human serum
[12] = S5b, serum of patient 23 (critically ill) spiked 50 mg/L, measured c 56.0 mg/L, calibration with human serum

SMILES: CN[C@H]1C(=O)N[C@@H]2Cc3ccc(cc3)Oc3cc4cc(c3O[C@@H]3O[C@H](C(=O)O)[C@@H](O)[C@H](O)[C@H]3NC(=O)CCCCCCCCC(C)C)Oc3ccc(cc3Cl)[C@@H](O)[C@@H]3NC(=O)[C@H](NC(=O)[C@@H]4NC(=O)[C@@H](NC2=O)c2cc(cc(O)c2Cl)Oc2cc1ccc2O)c1ccc(O)c(c1)-c1c(O[C@H]2O[C@H](CO)[C@@H](O)[C@H](O)[C@@H]2O)cc(O)cc1[C@@H](C(=O)NCCCN(C)C)NC3=O [dalbavancin, Dalbavancin]
- fc ([1]; S5b, serum of patient 15 (critically ill) spiked 200 mg/L, measured c 239 mg/L, calibration with human serum): 9.8 mg/L
- fc [1, 3]: 1.8 mg/L
- fc ([1]; S5b, serum of patient 16 (critically ill) spiked 200 mg/L, measured c 233 mg/L, calibration with human serum): 12.1 mg/L
- fc ([1]; S5b, serum of patient 17 (critically ill) spiked 50 mg/L, measured c 52.5 mg/L, calibration with human serum): < 1.0 mg/L
- fc [1, 4]: 8.3 mg/L
- fc [1, 5]: 1.3 mg/L
- fc [1, 6]: 8.8 mg/L
- fc [1, 7]: 1.2 mg/L
- fc [1, 8]: 7.1 mg/L
- fc [1, 9]: 1.7 mg/L
- fc [1, 10]: 8.2 mg/L
- fc [1, 11]: 1.6 mg/L
- fc ([1]; S5b, serum of patient 21 (critically ill) spiked 200 mg/L, measured c 230 mg/L, calibration with human serum): 11.0 mg/L
- fc ([1]; S5b, serum of patient 22 (critically ill) spiked 50 mg/L, measured c 59.8 mg/L, calibration with human serum): 2.5 mg/L
- fc ([1]; S5b, serum of patient 22 (critically ill) spiked 200 mg/L, measured c 266 mg/L, calibration with human serum): 16.5 mg/L
- fc [1, 12]: 2.2 mg/L
- fc ([1]; S5b, serum of patient 23 (critically ill) spiked 200 mg/L, measured c 233 mg/L, calibration with human serum): 9.6 mg/L
- fraction unbound [1]: 0.05
- fraction unbound ([1]; S5a, serum of patient 1 (critically ill) spiked 50 mg/L, measured c 53.5 mg/L, calibration with sheep serum): 0.03
- fraction unbound ([1]; S5a, serum of patient 1 (critically ill) spiked 200 mg/L, measured c 201 mg/L, calibration with sheep serum): 0.04
- fraction unbound ([1]; S5a, serum of patient 2 (critically ill) spiked 50 mg/L, measured c 53.6 mg/L, calibration with sheep serum): 0.03
- fraction unbound ([1]; S5a, serum of patient 3 (critically ill) spiked 200 mg/L, measured c 209 mg/L, calibration with sheep serum): 0.04
- fraction unbound ([1]; S5a, serum of patient 4 (critically ill) spiked 50 mg/L, measured c 54.2 mg/L, calibration with sheep serum): 0.03
- fraction unbound ([1]; S5a, serum of patient 4 (critically ill) spiked 200 mg/L, measured c 212 mg/L, calibration with sheep serum): 0.04
- fraction unbound ([1]; S5a, serum of patient 5 (critically ill) spiked 50 mg/L, measured c 53.0 mg/L, calibration with sheep serum): 0.04
- fraction unbound ([1]; S5a, serum of patient 6 (critically ill) spiked 50 mg/L, measured c 50.4 mg/L, calibration with sheep serum): 0.03
- fraction unbound ([1]; S5a, serum of patient 8 (critically ill) spiked 50 mg/L, measured c 54.3 mg/L, calibration with sheep serum): 0.03
- fraction unbound ([1]; S5a, serum of patient 8 (critically ill) spiked 200 mg/L, measured c 201 mg/L, calibration with sheep serum): 0.04
- fraction unbound ([1]; S5a, serum of patient 9 (non-critically ill) spiked 200 mg/L, measured c 177 mg/L, calibration with sheep serum): 0.02
- fraction unbound ([1]; S5a, serum of patient 10 (non-critically ill) spiked 200 mg/L, measured c 180 mg/L, calibration with sheep serum): 0.02
- fraction unbound ([1]; S5a, serum of patient 11 (non-critically ill) spiked 200 mg/L, measured c 177 mg/L, calibration with sheep serum): 0.02
- fraction unbound ([1]; S5a, serum of patient 12 (non-critically ill) spiked 200 mg/L, measured c 195 mg/L, calibration with sheep serum): 0.02
- fraction unbound ([1]; S5a, serum of patient 13 (non-critically ill) spiked 50 mg/L, measured c 53.0 mg/L, calibration with sheep serum): 0.02
- fraction unbound ([1]; S5a, serum of patient 13 (non-critically ill) spiked 200 mg/L, measured c 214 mg/L, calibration with sheep serum): 0.03
- fraction unbound ([1]; S5a, serum of patient 14 (non-critically ill) spiked 50 mg/L, measured c 50.0 mg/L, calibration with sheep serum): 0.02
- fraction unbound ([1]; S5a, serum of patient 14 (non-critically ill) spiked 200 mg/L, measured c 208 mg/L, calibration with sheep serum): 0.02
- fraction unbound ([1]; S5b, serum of 24 (healthy volunteer) spiked 50 mg/L, measured c 46.1 mg/L, calibration with human serum): 0.03
- fraction unbound ([1]; S5b, serum of 24 (healthy volunteer) spiked 200 mg/L, measured c 184 mg/L, calibration with human serum): 0.02
- fraction unbound ([1]; S5b, serum of 25 (healthy volunteer) spiked 50 mg/L, measured c 45.8 mg/L, calibration with human serum): 0.03
- fraction unbound ([1]; S5b, serum of 25 (healthy volunteer) spiked 200 mg/L, measured c 197 mg/L, calibration with human serum): 0.03
- fraction unbound ([1]; S5b, serum of 26 (healthy volunteer) spiked 50 mg/L, measured c 52.6 mg/L, calibration with human serum): 0.03
- fraction unbound ([1]; S5b, serum of patient 15 (critically ill) spiked 50 mg/L, measured c 56.7 mg/L, calibration with human serum): 0.03
- fraction unbound [1, 3]: 0.04
- fraction unbound [1, 4]: 0.04
- fraction unbound [1, 5]: 0.03
- fraction unbound [1, 6]: 0.04
- fraction unbound [1, 7]: 0.02
- fraction unbound [1, 8]: 0.04
- fraction unbound [1, 9]: 0.03
- fraction unbound [1, 10]: 0.04
- fraction unbound [1, 11]: 0.03
- fraction unbound [1, 12]: 0.04
- maximum free fraction at total concentrations below the LOQ of 12.5 mg/L ([2]; in accordance with the higher protein binding observed): 0.4 mg/L
- fcmax(d1) * ([2]; patient 1, 1500 mg): 5.4 mg/L
- fcmin(d8) * ([2]; patient 1, 1500 mg): 1.3 mg/L
- fAUC(d8) * ([2]; patient 1, 1500 mg): 31200 ng·h/mL
- fcmax(d1) * ([2]; patient 2, 1500 mg): 6.4 mg/L
- fcmin(d8) * ([2]; patient 2, 1500 mg): 1.0 mg/L
- fAUC(d8) * ([2]; patient 2, 1500 mg): 24000 ng·h/mL
- fcmax(d1) * ([2]; patient 3, 1500 mg): 6.7 mg/L
- fcmin(d8) * ([2]; patient 3, 1500 mg): <1.0 mg/L
- fAUC(d8) * ([2]; patient 3, 1500 mg): <24000 ng·h/mL

Source: publication PMC9137512 (Antibiotics, 2022)
